Assay results from US20250032624A1, “SMALL MOLECULE DEGRADATION METHODS FOR TREATING ALS/FTD” (University of Florida Research Foundation, Incorporated, priority 2021, published 2025).

What was measured:
[1] = test system: C9orf72 intron 1; test: C9orf72 transcript RT-qPCR in LCLs from healthy donors; type: cell-based, human
Protocol: Measuring Levels of C9orf72 and C9orf72 Variants by RT-qPCR. LCLs and iPSCs were seeded in 6-well plates (˜10^6 cells in 2 mL of Basal medium) and incubated overnight at 37° C. with 5% CO2. LCLs were then treated with compound for 4 days without media changes; patient-derived iPSCs were seeded at ˜80% confluency and treated, as described above. Treatment with either a G4C2-ASO or Control-ASO (100 nM) was used as a control. ASO transfection was achieved using Lipofectamine RNAiMax (Life Technologies), following the manufacturer's protocol. After 4 days of treatment (with either compound or ASO), total RNA was extracted using the Quick-RNA Miniprep Kit (Zymo Research). RNA was quantified via Nanodrop and ˜1 μg of total RNA was reverse transcribed using qScript (Quantbio), according to the manufacturer's guidelines. RT-qPCR was performed on a QuantStudio™ Real-Time PCR Instrument (Applied Biosystems) using Power SYBR Green Master Mix (Applied Biosystems). Expression levels of mRNAs were normalized to GAPDH. See Table 2 for a list of primers used.

[2] = test system: poly(GP); test: poly(GP) and β-actin by electrochemiluminescence assay in brain of +/+PWR500 mice; type: in vivo, mouse
Protocol: A total of 20 age- and gender-matched mice (12 +/+PWR500 [5 Male and 7 Female] and 8 WT [4 Male and 4 Female]), ranging from 18-21 weeks old were used in therapeutic efficacy studies (Table 4). Mice were treated with a single bolus injection of 33 nmol of compound 2 formulated in 1% (v/v) DMSO/99% water, administered by an intracerebroventricular injection (ICV). Three weeks post injection, mice were euthanized, and tissue was harvested for study.
Postmortem brain tissue was harvested and sliced along the sagittal plane at the midline. The left hemisphere was frozen for RNA and protein analysis. Frozen brain tissue was homogenized in 300 μL Tris-EDTA buffer with a 1:5 w/v ratio of 2× protease and phosphatase inhibitors, as was done for RNA analysis of the tissue. Half of the homogenized tissue (150 μL) was mixed with 2× Lysis Buffer (50 mM Tris, pH 7.4, 250 mM NaCl, 2% (v/v) Triton X-100, and 4% (w/v) SDS) and sonicated at 1 second on/off intervals at 30% for a total of 15 seconds. Detergent from was removed using a Pierce™ Detergent Removal Spin Column 0.5 mL (Thermo Scientific) according to the manufacturer's protocol. Protein concentrations were then measured by BCA assay (Pierce Biotechnology) and poly(GP) was measured as described above for the electrochemical luminescent sandwich immunoassay.

[3] = test system: C9orf72; test: C9orf72 transcript RT-qPCR in healthy iPSNs; type: cell-based, human
Protocol: Differentiated motor neurons (iPSNs) were derived from the iPSCs listed in the previous section. The differentiation process was based on a previously reported method with slight modifications^33,34. Briefly, iPSCs were plated into Matrigel-coated 100 mm dishes (30-40% confluence). Neuroepithelial induction was performed by replacing the Basal medium with Stage 1 medium [47.5% IMDM (Iscove's Modified Dulbecco's Medium), 47.5% F12 medium, 1% NEAA (Non-Essential Amino Acids) (Life Technologies), 2% B27 (Invitrogen), 1% N2 (Invitrogen), 1% PSA (Penicillin-Streptomycin-Amphotericin), 0.2 μM LDN193189 (Stemgent), 10 μM SB431542 (STEMCELL Technologies) and 3 μM CHIR99021 (Sigma-Aldrich)]. The medium was changed daily for 6 days, after which cells were detached from plates using Accutase (STEMCELL Technologies). Cells were seeded into 6-well plates (1.5×10^6 cells/well) in 3 mL of Stage 2 medium [Stage 1 medium supplemented with 0.1 μM All-trans RA (Sigma-Aldrich) and 1 μM SAG (Cayman Chemicals)]. Cells were maintained in Stage 2 medium, with daily medium changes, through Day 11 of the differentiation process. On Day 12, the Stage 2 cell medium was removed and replaced with Stage 3 medium [47.5% IMDM, 47.5% F12 medium, 1% NEAA, 2% B27, 1% N2, 1% PSA, 0.1 μM Compound E (Millipore; Catalog #: 565790), 2.5 μM DAPT (Sigma-Aldrich), 0.1 μM db-cAMP (Millipore), 0.5 μM All-trans RA, 0.1 μM SAG, 20 ng/mL ascorbic acid, 10 ng/mL BDNF (STEMCELL Technologies), and 10 ng/mL GDNF (STEMCELL Technologies)]. This medium was replaced every three days until the end of the differentiation process. Typically, a minimum of 18 days is required to produce immature differentiated motor neurons; 30 days of differentiation is the standard for producing mature differentiated spinal neurons. The cells can be maintained in medium for an additional 14-28 days after reaching maturation. […]
For iPSNs cells were differentiated, following the protocol outlined above, until Day 15. […] RNA was extracted as described above and the expression levels of C9orf72 variants was determined by RT-qPCR and normalized to GAPDH. […]

[4] = test system: r(GGCC)8; test: Affinity by MST, base-paired control r(GGCC)8; type: binding; conditions: base-paired control r(GGCC)8, concentrations up to 20 μM
Protocol: Affinity measurements were performed by MST using a Monolith NT.115 system (NanoTemper Technologies) with 5′-Cy5-labeled r(G4C2)8 (SEQ ID NO: 1), 5′-Cy5-labeled d(G4C2)8 (SEQ ID NO: 1), and 5′-Cy5-labeled base pair control r(G2C2)4GAAA(G2C2)4 (SEQ ID NO: 49). All oligos were deprotected according to the manufacturer's recommended protocol. Samples were prepared as previously described^30. Briefly, RNA or DNA (5 nM) was folded in 1×MST Buffer (8 mM Na2HPO4, 185 mM NaCl, 1 mM EDTA) by heating at 95° C. for 5 minutes and slowly cooling to room temperature. Tween-20 was then added to a final concentration of 0.05% (v/v). Serial dilutions of compound in 1×MST Buffer containing 5 nM folded nucleic acid were then carried out to yield the desired compound concentrations. Samples were incubated for 90 minutes at room temperature and then loaded into premium capillaries (NanoTemper Technologies). The following parameters were used on the Monolith NT.115 system: 10% LED, 20-80% MST power, Laser-On time=30 s, Laser-Off time=5 seconds. Fluorescence was detected using excitation wavelengths of 605-645 nm and emission wavelengths of 680-685 nm. The resulting data were analyzed by thermophoresis analysis and fit using the quadratic binding equation in the MST analysis software (NanoTemper Technologies). The dissociation constant was determined using Equation 1. […]

CCOC(=O)C1=C(Nc2ccccc2)S/C(=C\c2ccc(OCCOCCOCCOCCNC(=O)CCCOc3ccc4c(c3)c3cc5c(C(=O)N[C@H](C)CN(C)C)nccc5c(C)c3n4C)c(O)c2)C1=O [ALS Compound Formula I]
effect on C9orf72 intron 1 levels [1]: did not reduce
β-actin abundance ([2]; house-keeping protein): unaffected
reduction of poly(GP) ([2]; single ICV injection, 3 weeks): ~40%
effect on exon 2-3 levels [3]: No effect
effect on intron 1b levels [3]: No effect
effect on intron 1 levels [3]: No effect
saturable binding [4]: No saturable binding
